Measured values reported in ChEMBL document CHEMBL1667840, “Chemical and biological explorations of the electrophilic reactivity of the bioactive marine natural product halenaquinone with biomimetic nucleophiles” (Bioorg Med Chem Lett, 2011).

What was measured:
Plasmodium falciparum [1] = experiment: Antiplasmodial activity against chloroquine-sensitive Plasmodium falciparum 3D7 after 48 hrs; assay type: functional, organism-based; details: 3D7, 48 h
[2] = target: Protein farnesyltransferase (Homo sapiens, UniProt P49354+P49356); experiment: Inhibition of human FTase after 15 mins by fluorimetric analysis; assay type: protein-complex assay
[3] = Inhibition of Saccharomyces cerevisiae FTase after 15 mins by fluorimetric analysis
Plasmodium falciparum [4] = experiment: Antiplasmodial activity against chloroquine-resistant Plasmodium falciparum FcB1 after 48 hrs; assay type: functional, organism-based; details: FcB1/Columbia
Phospholipase A2 = target: T1, Phospholipase A2 (Apis mellifera, UniProt P00630); experiment: Inhibition of bee venom phospholipase A2 after 5 mins by spectrophotometric analysis
T1 sequence (P00630 whole entry): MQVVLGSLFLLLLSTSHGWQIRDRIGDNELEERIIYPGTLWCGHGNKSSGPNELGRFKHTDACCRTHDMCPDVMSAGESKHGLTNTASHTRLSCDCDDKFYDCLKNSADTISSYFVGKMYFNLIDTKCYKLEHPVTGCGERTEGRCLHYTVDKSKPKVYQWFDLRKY

Vero = experiment: Cytotoxicity against african green monkey Vero cells assessed as inhibition of [3H]hypoxanthine incorporation after 48 hrs; assay type: cell-based; details: Chlorocebus sabaeus

Compound | IC50 (Plasmodium falciparum [1]) | IC50 [2] | IC50 [3] | IC50 (Plasmodium falciparum [4]) | IC50 (Phospholipase A2) | IC50 (Vero)
C[C@@]12CCC(=O)/C(=C\NCCc3ccccc3)C1=C(O)C(=O)c1cc3c(cc12)C(=O)C=CC3=O | 2.1 µM | 0.44 µM | 0.31 µM | 8.8 µM | 17.7 µM | 4.7 µM
CCCCCN/C=C1\C(=O)CC[C@]2(C)C1=C(O)C(=O)c1cc3c(cc12)C(=O)C=CC3=O | 7.4 µM | 0.057 µM | 0.041 µM | 9.2 µM | 23.9 µM | 6.3 µM
CC(C)(C)OC(=O)NCCN/C=C1\C(=O)CC[C@]2(C)C1=C(O)C(=O)c1cc3c(cc12)C(=O)C=CC3=O |  |  |  | 52.8 µM | 12.8 µM | 7.4 µM
CC(C)=CCC/C(C)=C/CN/C=C1\C(=O)CC[C@]2(C)C1=C(O)C(=O)c1cc3c(cc12)C(=O)C=CC3=O | 0.53 µM | 0.031 µM | 0.017 µM | 0.62 µM | 34.4 µM | 8.6 µM
COC(=O)CN/C=C1\C(=O)CC[C@]2(C)C1=C(O)C(=O)c1cc3c(cc12)C(=O)C=CC3=O | 16.5 µM |  |  | 55.8 µM | 76.8 µM | 13.4 µM
C[C@@]12CCC(=O)c3coc(c31)C(=O)c1cc3c(cc12)C(=O)C=CC3=O [HELENAQUINONE] | 30 µM |  | 1.6 µM | > 30 µM |  | > 60 µM
CC1=CCCC2(C)C1=C(O)C(=O)c1cc3c(cc12)C(=O)C=CC3=O (stereo unspecified) [ORHALQUINONE] |  |  | 0.4 µM |  |  | > 62 µM
